Reference: patent US5272143A, “6-oxoazepinoindole compounds, and pharmaceutical compositions containing them” (Kali-Chemie Pharma GmbH, priority 1991, dated 1993)
Where a name gives a salt, the structure may show the parent alone.

Legend:
Mouse = test system: Mouse; parameters: species or system Male mice; conditions: in vivo, po, 4320 min
Procedure: 1. Determination of the minimum toxic dose.
Male mice of 20-25 g weight are administered maximum doses of 300 mg/kg of the test substance p.o. The animals were carefully observed for 3 hours for symptoms of toxicity. Over a period of 72 hours after administration, all symptoms and cases of death are additionally recorded. Concomitant symptoms are likewise observed and recorded. If death or strong toxic symptoms are observed, further mice are administered increasingly lower doses until toxic symptoms no longer occur. The lowest dose which causes death or strong toxic symptoms is given in the following Table A as the minimum toxic dose. The example numbers given in Table A relate to the subsequent preparation examples.

stomach motility = experiment: Determination of effect on stomach motility in anaesthetised rats; type: in vivo, rats of the SIV 50 strain; conditions: rat, 100 μmole/kg i.p.; for change in vivo at 100 µmol/kg: ip, read-out: Maximum Amplitude Increase (increase in % of control amplitude)
Procedure: 2. Determination of effect on stomach motility in anaesthetised rats.
For the tests, groups of 5-6 fasting rats of the SIV 50 strain having a body weight of 220-290 g were used in each test which had been anaesthetised with a ketamine/xylazine mixture. The animals received an initial dose of 1 ml/kg of a solution of 50 mg/ml of ketamine and 10 mg/ml of xylazine administered i.p., and the anaesthetic level was maintained by a continuous intraperitoneal infusion of the same solution at an infusion rate of 1 ml/kg/h. The animals were tracheotomised and laparotomised. After applying a pylorus ligature, a stomach tube was inserted into the stomach and connected at the other end by means of a three-way tap to a calibrated pressure transducer (Statham Element P 23 ID). A corresponding tube was inserted rectally 8-9 cm into the colon and likewise connected in the same manner to a calibrated pressure transducer of the same type. The stomachs of the animals were then filled with 2 ml of water via the tube. After a stabilisation phase of 40 min, the pressure variations in the stomach and colon were measured over a test period of 2 hours and 20 minutes, and the amplitudes produced by the phasic gastric motility were recorded by means of a Watanabe multirecorder (MC 6621). The geometric mean values of the amplitudes during the first 20 min were determined for the individual animals and used as control amplitude values. After the first 20 min, the test substances were administered i.p. The maximum increase in amplitude (=mean value of the 20 minute period in which the highest increase in amplitude occurs) caused by the test substances was determined in % increase of the control amplitude values determined before administration of the test substances, and the mean value for the animal group is given in the following Table A. In addition, the maximum increase in the mean gastric tone caused by the test substances during the test period compared with the mean gastric tone existing before administration of the test substances was recorded. This increase in gastric tone is given in Table A in cm of H2 O (mean value of the animal group). In the colon, the test substances cause amplitude damping.

5-HT1-like receptors = experiment: Serotonin-agonistic contractions in segments of the isolated basilar artery of the pig (in vitro antimigraine activity); type: cell-based; conditions: for Maximum Contraction Produced by Test Substance Relative to Maximum Contraction Produced by Serotonin = 1 / relative potency calculated as pD2 of the test substance relative to the pD2 of serotonin determined on the same piece of artery / pD2 = neg. log of Concentration Which Produces 50% of Maximum Contraction: porcine basilar artery, in vitro; for pD2 = neg. log of Concentration Which Produces 50% of Maximum Contraction: concentrations in mol/l
Text: 3. Investigation of Properties Indicating Antimigraine Activity of Test Substance in vitro. Migraine pains are associated with excessive dilation of the cranial vascular system. […] This property of the test substances can be used as a basis for predicting anti-migraine activity. The serotoninagonistic activity of the substances on 5-HT1 -like receptors can be determined in vitro in isolated organ strips from the basilar artery of a pig. […] Such a contraction is also produced by the test substances and is a good index of the antimigraine activity of the substances. The tests are carried out according to the method described by van Charldorp et al. (Naunyn-Schmiedeb. Arch. Pharmacol. supp. to volume 341, R89, 1990 and Eur. J. Pharmacol. 183, 1106-1107, 1990). Experimental description of the in vitro determination of the effect inducing serotonin-agonistic contractions in segments of the isolated basilar artery of the pig. For the experiment, helical segments of the basilar artery of pigs were used which were isolated from pig brains supplied by a slaughterhouse. Each strip was fixed in an organ bath consisting of 10 ml of a modified Tyrode solution such that the tissue was under a tension of 10 mN. […] The solution was modified by adding 10^-8 mol/l of indomethacin, 10^-7 mol/l of atropine and 10^-7 mol/l of propanolol and adjusted to pH=7.4. The bath was aerated with a mixture of 95% O2 and 5% CO2. After an equilibration phase of 1 hour a contraction of the tissue was produced twice, in each case by addition of serotonin at a concentration of 10^-5 mol/l and the preparation was subsequently washed out. The contraction effect was then measured with increasing serotonin concentration and a cumulative concentration effect curve for serotonin was drawn up. A cumulative concentration effect curve was drawn up for the test substance on the same preparation (after washing out again). In the following Table B, the maximum contraction caused by the test substances in relationship to the maximum contraction produced by serotonin, and the negative logarithm of that concentration of the test substance which produces 50% of the maximum contraction which can be produced by this test substance (=pD2), and the relative potency calculated as pD2 of the test substance relative to the pD2 of serotonin determined on the same piece of artery are given.

Structure (SMILES)	Minimum Toxic Dose (Mouse) [mg/kg]	Gastric Tone Increase (stomach motility) [cm H2O]	change in vivo at 100 µmol/kg (stomach motility) [%]	also measured
O=C1NCC(CN2CCCCC2)c2c[nH]c3cccc1c23 (centres unmarked) [Example 14, 3-(1-Piperidinylmethyl)-3,4,5,6-tetrahydro-6-oxo-1H-azepino[5,4,3-cd]indole]	> 300	3.0		
CN(C)CC1CNC(=O)c2cccc3[nH]cc1c23 (centres unmarked) [Example 39]	> 300	1.8	569	
O=C1NC(CNC2CC2)Cc2c[nH]c3cccc1c23 (centres unmarked) [Example 45]	> 300	3.5	580	
O=C1NCC(CNCC2CC2)c2c[nH]c3cccc1c23 (centres unmarked) [Example 47]		6.7		
CCCN(CCC)CC1CNC(=O)c2cccc3[nH]cc1c23 (centres unmarked) [Example 40]	> 300	6.5	997	
CNC[C@@H]1CNC(=O)c2cccc3[nH]cc1c23 [Example 4a, 3R(+)-3-methylaminomethyl-3,4,5,6-tetrahydro-6-oxo-1H-azepino[5,4,3-cd]indole hydrochloride]				Maximum Contraction Produced by Test Substance Relative to Maximum Contraction Produced by Serotonin = 1 (5-HT1-like receptors): 0.6; relative potency calculated as pD2 of the test substance relative to the pD2 of serotonin determined on the same piece of artery (5-HT1-like receptors): 0.354; pD2 = neg. log of Concentration Which Produces 50% of Maximum Contraction (5-HT1-like receptors): 7.0
O=C1NC(CN2CCN(c3ccccc3)CC2)Cc2c[nH]c3cccc1c23 (centres unmarked) [Example 17, 4-(4-Phenylpiperazin-1-ylmethyl)-3,4,5,6-tetrahydro-6-oxo-1H-azepino[5,4,3-cd]indole]	> 300		293	
CCN(CC)CC1CNC(=O)c2cccc3[nH]cc1c23 (centres unmarked) [Example 5b, 3-Diethylaminomethyl-3,4,5,6-tetrahydro-6-oxo-1H-azepino[5,4,3-cd]indole]	> 300	3.8	449	
CC(C)NCC1CNC(=O)c2cccc3[nH]cc1c23 (centres unmarked) [Example 6, 3-Isopropylaminomethyl-3,4,5,6-tetrahydro-6-oxo-1H-azepino[5,4,3-cd]indole]	> 300	15.4	609	
NCC1CNC(=O)c2cccc3c2c1cn3Cc1ccccc1 (centres unmarked) [Example 10, 1-Benzyl-3-aminomethyl-3,4,5,6-tetrahydro-6-oxo-1H-azepino[5,4,3-cd]indole]	> 300	10.5	663	
CCNCC1CNC(=O)c2cccc3[nH]cc1c23 (centres unmarked) [Example 5a, 3-Ethylaminomethyl-3,4,5,6-tetrahydro-6-oxo-1H-azepino[5,4,3-cd]indole]	> 300	9.5		
O=C1NC(CN2CCOCC2)Cc2c[nH]c3cccc1c23 (centres unmarked) [Example 29]	> 300		154	
NCC1CNC(=O)c2cccc3c2c1cn3CCCc1ccccc1 (centres unmarked) [Example 13, 3-Aminomethyl-1-(3-phenylpropyl)-3,4,5,6-tetrahydro-6-oxo-1H-azepino[5,4,3-cd]indole]	> 300	7.2	332	
CCCCNCC1CNC(=O)c2cccc3[nH]cc1c23 (centres unmarked) [Example 41]	> 300	2.7	234	
CC(C)n1cc2c3c(cccc31)C(=O)NCC2CN (centres unmarked) [Example 34]			467	
O=C1NC(CNC2CCCCC2)Cc2c[nH]c3cccc1c23 (centres unmarked) [Example 28]	> 300	0.5	17	
Cc1ccc(CNCC2CNC(=O)c3cccc4[nH]cc2c34)cc1 (centres unmarked) [Example 24]	> 300		195	
O=C1NCC(CNCc2ccccc2)c2c[nH]c3cccc1c23 (centres unmarked) [Example 2, 3-Benzylaminomethyl-3,4,5,6-tetrahydro-6-oxo-1H-azepino[5,4,3-cd]indole]	> 300		239	
COc1ccc(CCNCC2CNC(=O)c3cccc4[nH]cc2c34)cc1OC (centres unmarked) [Example 32]	> 300		922	
CN(C)C=NCC1CNC(=O)c2cccc3[nH]cc1c23 (centres unmarked) [Example 15, 3-(Dimethylaminomethylideneaminomethyl)-3,4,5,6-tetrahydro-6-oxo-1H-azepino[5,4,3-cd]indole]	> 300	3.1	308	
CN1CCN(CC2Cc3c[nH]c4cccc(c34)C(=O)N2)CC1 (centres unmarked) [Example 25]	300		206	
COCN1CC(CN)c2c[nH]c3cccc(c23)C1=O (centres unmarked) [Example 12, 3-aminomethyl-5-methoxymethyl-3,4,5,6-tetrahydro-6-oxo-1H-azepino[5,4,3-cd]indole]				Maximum Contraction Produced by Test Substance Relative to Maximum Contraction Produced by Serotonin = 1 (5-HT1-like receptors): 0.7; relative potency calculated as pD2 of the test substance relative to the pD2 of serotonin determined on the same piece of artery (5-HT1-like receptors): 0.050; pD2 = neg. log of Concentration Which Produces 50% of Maximum Contraction (5-HT1-like receptors): 6.0
NCCC1Cc2c[nH]c3cccc(c23)C(=O)N1 (centres unmarked) [Example 8, 4-(2-Aminoethyl)-3,4,5,6-tetrahydro-6-oxo-1H-azepino[5,4,3-cd]indole]	> 300		569	
NC[C@@H]1CNC(=O)c2cccc3[nH]cc1c23 [Example 1a, 3R(+)-3-Aminomethyl-3,4,5,6-tetrahydro-6-oxo-1H-azepino[5,4,3-cd]indole]				Maximum Contraction Produced by Test Substance Relative to Maximum Contraction Produced by Serotonin = 1 (5-HT1-like receptors): 1.0; relative potency calculated as pD2 of the test substance relative to the pD2 of serotonin determined on the same piece of artery (5-HT1-like receptors): 0.172; pD2 = neg. log of Concentration Which Produces 50% of Maximum Contraction (5-HT1-like receptors): 6.7
NCCc1c[nH]c2ccc(O)cc12 [Serotonin, reference compound]				action on 5-HT1-like receptors in the basilar artery (contraction) (5-HT1-like receptors; isolated basilar artery): concentration -dependent contraction
CCCNCC1CNC(=O)c2cccc3[nH]cc1c23 (centres unmarked) [Example 38]	> 300	12.4	559	
COc1ccc(CCn2cc3c4c(cccc42)C(=O)NCC3CN)cc1OC (centres unmarked) [Example 36]	> 300	11.5	351	
CC(C)(C)NCC1Cc2c[nH]c3cccc(c23)C(=O)N1 (centres unmarked) [Example 31]	> 300		928	
O=C1NCC(CN2CCCC2)c2c[nH]c3cccc1c23 (centres unmarked) [Example 37]	> 300	4.0	950	
